Experimental data reported in ChEMBL document CHEMBL2157943, “Role of the side chain stereochemistry in the α-glucosidase inhibitory activity of kotalanol, a potent natural α-glucosidase inhibitor. Part 2” (Bioorg Med Chem, 2012).
pIC50: −log10 of the molar value.

How the values were obtained:
[1] = biological target: T1, Sucrase-isomaltase, intestinal (Rattus norvegicus, UniProt P23739); test: Inhibition of rat small intestinal sucrase after 30 mins by glucose-oxidase method
[2] = biological target: T1, Sucrase-isomaltase, intestinal; test: Inhibition of rat small intestinal isomaltase after 30 mins by glucose-oxidase method
[3] = biological target: Sucrase-isomaltase, intestinal (Rattus norvegicus) (UniProt P23739); settings: 100 ug/ml
Description: Inhibition of rat small intestinal sucrase at 100 ug/ml after 30 mins by glucose-oxidase method

[4] = biological target: Lysosomal alpha-glucosidase (Rattus norvegicus) (UniProt Q6P7A9); settings: 100 ug/ml
Sequence of Lysosomal alpha-glucosidase (Rattus norvegicus) (Q6P7A9 whole entry): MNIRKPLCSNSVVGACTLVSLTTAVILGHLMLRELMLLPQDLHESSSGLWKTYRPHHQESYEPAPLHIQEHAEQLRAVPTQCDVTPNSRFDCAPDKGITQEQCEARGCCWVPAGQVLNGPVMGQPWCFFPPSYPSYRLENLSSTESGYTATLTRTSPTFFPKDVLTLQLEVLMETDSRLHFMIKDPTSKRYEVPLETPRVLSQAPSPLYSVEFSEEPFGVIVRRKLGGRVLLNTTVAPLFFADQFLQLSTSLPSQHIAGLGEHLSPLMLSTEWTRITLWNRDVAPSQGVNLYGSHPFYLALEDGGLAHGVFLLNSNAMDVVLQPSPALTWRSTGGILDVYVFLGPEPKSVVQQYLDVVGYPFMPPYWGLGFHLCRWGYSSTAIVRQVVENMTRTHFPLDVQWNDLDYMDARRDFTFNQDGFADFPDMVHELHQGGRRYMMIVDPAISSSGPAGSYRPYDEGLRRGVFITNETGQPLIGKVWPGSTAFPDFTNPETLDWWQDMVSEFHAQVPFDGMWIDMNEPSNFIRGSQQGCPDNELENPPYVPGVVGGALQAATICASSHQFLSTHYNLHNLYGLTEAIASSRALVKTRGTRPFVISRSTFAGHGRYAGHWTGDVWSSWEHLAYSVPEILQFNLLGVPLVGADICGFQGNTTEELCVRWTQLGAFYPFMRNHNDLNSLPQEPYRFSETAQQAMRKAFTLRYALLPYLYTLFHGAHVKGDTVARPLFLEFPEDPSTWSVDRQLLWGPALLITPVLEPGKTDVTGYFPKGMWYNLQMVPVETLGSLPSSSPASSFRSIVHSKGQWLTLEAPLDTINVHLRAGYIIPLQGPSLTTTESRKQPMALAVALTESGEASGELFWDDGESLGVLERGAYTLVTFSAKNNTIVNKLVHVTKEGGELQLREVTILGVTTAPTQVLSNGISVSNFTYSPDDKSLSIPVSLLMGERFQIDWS
Description: Inhibition of rat small intestinal maltase at 100 ug/ml after 30 mins by glucose-oxidase method

T1 sequence (P23739 1-1013 limits assumed): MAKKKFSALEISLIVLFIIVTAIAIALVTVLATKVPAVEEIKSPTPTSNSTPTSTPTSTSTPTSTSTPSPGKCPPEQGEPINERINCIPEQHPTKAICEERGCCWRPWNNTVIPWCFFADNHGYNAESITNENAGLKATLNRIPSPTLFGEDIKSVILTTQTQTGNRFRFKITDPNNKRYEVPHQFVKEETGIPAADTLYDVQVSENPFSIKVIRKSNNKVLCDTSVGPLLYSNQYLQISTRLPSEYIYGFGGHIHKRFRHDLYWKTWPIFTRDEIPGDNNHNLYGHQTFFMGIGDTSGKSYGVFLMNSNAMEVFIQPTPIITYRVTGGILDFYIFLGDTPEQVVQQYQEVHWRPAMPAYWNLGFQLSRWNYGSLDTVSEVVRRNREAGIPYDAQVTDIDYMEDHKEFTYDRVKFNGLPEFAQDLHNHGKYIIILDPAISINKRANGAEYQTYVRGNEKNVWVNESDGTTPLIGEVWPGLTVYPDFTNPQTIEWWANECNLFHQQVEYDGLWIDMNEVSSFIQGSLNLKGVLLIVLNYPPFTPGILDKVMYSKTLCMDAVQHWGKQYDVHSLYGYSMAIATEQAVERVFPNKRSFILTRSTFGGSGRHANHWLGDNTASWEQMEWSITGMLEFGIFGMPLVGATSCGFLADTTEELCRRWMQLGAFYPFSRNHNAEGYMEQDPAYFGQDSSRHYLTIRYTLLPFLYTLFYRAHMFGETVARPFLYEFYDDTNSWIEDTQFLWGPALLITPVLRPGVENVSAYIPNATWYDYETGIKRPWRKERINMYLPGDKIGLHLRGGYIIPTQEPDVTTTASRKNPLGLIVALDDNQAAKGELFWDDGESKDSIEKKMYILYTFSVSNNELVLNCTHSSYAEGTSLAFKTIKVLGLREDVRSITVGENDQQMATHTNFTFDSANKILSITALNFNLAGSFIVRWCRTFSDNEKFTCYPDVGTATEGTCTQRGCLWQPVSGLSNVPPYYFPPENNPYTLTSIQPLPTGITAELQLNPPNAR
T1 sequence (P23739 1014-1841 limits assumed): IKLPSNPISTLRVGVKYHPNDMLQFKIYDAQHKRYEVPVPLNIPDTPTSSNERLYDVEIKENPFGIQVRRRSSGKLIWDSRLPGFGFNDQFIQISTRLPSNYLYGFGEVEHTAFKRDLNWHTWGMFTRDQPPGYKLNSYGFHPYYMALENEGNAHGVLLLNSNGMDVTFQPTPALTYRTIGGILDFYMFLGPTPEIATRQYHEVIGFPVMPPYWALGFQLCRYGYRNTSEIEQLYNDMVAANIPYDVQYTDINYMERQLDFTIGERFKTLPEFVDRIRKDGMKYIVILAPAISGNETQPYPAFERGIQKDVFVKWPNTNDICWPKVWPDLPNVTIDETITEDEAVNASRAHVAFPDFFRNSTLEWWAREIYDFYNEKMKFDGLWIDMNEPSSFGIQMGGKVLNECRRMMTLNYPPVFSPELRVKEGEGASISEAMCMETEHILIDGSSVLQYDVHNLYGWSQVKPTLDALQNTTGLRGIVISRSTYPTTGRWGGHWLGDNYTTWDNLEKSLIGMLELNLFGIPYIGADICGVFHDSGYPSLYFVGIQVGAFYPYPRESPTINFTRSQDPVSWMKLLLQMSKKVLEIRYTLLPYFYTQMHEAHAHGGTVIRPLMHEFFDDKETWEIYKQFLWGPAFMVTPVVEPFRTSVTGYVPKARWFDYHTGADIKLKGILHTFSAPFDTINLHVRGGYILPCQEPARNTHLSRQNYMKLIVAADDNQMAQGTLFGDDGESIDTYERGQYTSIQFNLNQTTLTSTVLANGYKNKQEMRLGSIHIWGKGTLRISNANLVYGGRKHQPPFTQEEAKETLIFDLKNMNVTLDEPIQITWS
Sequence of Sucrase-isomaltase, intestinal (Rattus norvegicus) (P23739 1-1013 limits assumed): as the sequence (P23739 1-1013 limits assumed) above
Sequence of Sucrase-isomaltase, intestinal (Rattus norvegicus) (P23739 1014-1841 limits assumed): as the sequence (P23739 1014-1841 limits assumed) above

Row | SMILES | pIC50 [1] | pIC50 [2] | inhibition [3] [%] | inhibition [4] [%]
1 | O=S(=O)([O-])O[C@@H]([C@@H](O)[C@@H](O)[C@@H](O)CO)[C@H](O)C[S@+]1C[C@@H](O)[C@H](O)[C@H]1CO | 4.49 | 5.19 |  | 
2 | O=S(=O)([O-])O[C@H]([C@@H](O)[C@@H](O)[C@H](O)CO)[C@H](O)C[S@+]1C[C@@H](O)[C@H](O)[C@H]1CO (mixture of isomers) | < 3.63 | 4.80 | 8 | 25
3 | O=S(=O)([O-])O[C@H]([C@@H](O)[C@H](O)[C@@H](O)CO)[C@H](O)C[S@+]1C[C@@H](O)[C@H](O)[C@H]1CO | < 3.63 | 4.70 | 28 | 32
4 | O=S(=O)([O-])O[C@@H]([C@@H](O)[C@H](O)[C@H](O)CO)[C@H](O)C[S@+]1C[C@@H](O)[C@H](O)[C@H]1CO | 3.67 | 4.80 |  | 44
5 | O=S(=O)([O-])O[C@@H]([C@@H](O)[C@H](O)[C@@H](O)CO)[C@H](O)C[S@+]1C[C@@H](O)[C@H](O)[C@H]1CO | 3.87 | 4.96 |  | 42
6 | O=S(=O)([O-])O[C@H]([C@@H](O)[C@@H](O)[C@@H](O)CO)[C@H](O)C[S@+]1C[C@@H](O)[C@H](O)[C@H]1CO | < 3.63 | 4.68 | 34 | 45
7 | O=S(=O)([O-])O[C@H]([C@@H](O)[C@H](O)[C@H](O)CO)[C@H](O)C[S@+]1C[C@@H](O)[C@H](O)[C@H]1CO | 4.26 | 4.24 |  | 
8 | O=S(=O)([O-])O[C@@H]([C@@H](O)[C@@H](O)[C@H](O)CO)[C@H](O)C[S@+]1C[C@@H](O)[C@H](O)[C@H]1CO | 4.17 | 5.80 |  | 
